The record followed here is patent publication US7994179B2, “Carbamoyl compounds as DGAT1 inhibitors 190” (AstraZeneca AB, priority 2007, dated 2011).

Usually IC50 stands for the midpoint of a concentration-inhibition curve.

The first test concerns the target T1, human DGAT1 expressed in insect cell membranes (Homo sapiens, UniProt O75907).
T1 construct: made in house; host or cells: sf9 insect cells (baculovirus), membrane fraction
T1 sequence (O75907 1-488): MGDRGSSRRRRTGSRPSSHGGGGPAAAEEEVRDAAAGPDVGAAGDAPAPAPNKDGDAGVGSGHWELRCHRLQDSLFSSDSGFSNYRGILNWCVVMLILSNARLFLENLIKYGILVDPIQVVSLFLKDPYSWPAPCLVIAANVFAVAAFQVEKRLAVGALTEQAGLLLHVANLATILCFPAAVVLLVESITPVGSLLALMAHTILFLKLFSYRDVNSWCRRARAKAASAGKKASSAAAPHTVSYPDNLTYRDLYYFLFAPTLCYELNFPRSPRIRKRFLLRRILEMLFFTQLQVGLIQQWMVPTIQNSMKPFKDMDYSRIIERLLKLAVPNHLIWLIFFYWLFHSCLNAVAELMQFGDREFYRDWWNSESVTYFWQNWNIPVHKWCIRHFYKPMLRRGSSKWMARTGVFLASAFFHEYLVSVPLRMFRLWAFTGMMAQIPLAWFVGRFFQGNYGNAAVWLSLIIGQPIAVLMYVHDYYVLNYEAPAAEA
The test is described as follows: Human Enzyme Assay: in vitro DGAT1 inhibition, 14C oleoyl coenzyme A incorporation into triolein.
Conditions: not given
The test is classed as biochemical. The protocol: Briefly, sf9 cells were infected with recombinant baculovirus containing human DGAT1 coding sequences and harvested after 48 h. […] The membrane fraction at the interphase was collected, washed, and stored in liquid nitrogen.
The reaction was started by adding ^14C oleoyl coenzyme A (30 μM final concentration) and incubated at room temperature for 30 minutes. The reaction was stopped by adding 200 μl 2-propanol:heptane 7:1. Radioactive triolein product was separated into the organic phase by adding 300 μl heptane and 100 μl 0.1 M carbonate buffer pH 9.5. DGAT1 activity was quantified by counting aliquots of the upper heptane layer by liquid scintillography.
Stated figures are usually a mean of a number of measurements (usually 2 measurements) according to standard practice.
In the case of `Cc1nc(C)c(-c2ccc([C@H]3CC[C@H](CC(=O)O)CC3)cc2)nc1C(N)=O` [Example 1, {trans-4-[4-(6-Carbamoyl-3,5-dimethylpyrazin-2-yl)phenyl]cyclohexyl}acetic acid], the IC50 came to 79 nM.

The test is the same for the next values; noted with them: acetone concentration not stated for these values; usually a mean of 2 measurements; read-out: IC50.
In the case of `Cc1nc(C)c(-c2ccc([C@H]3CC[C@H](CC(=O)NS(C)(=O)=O)CC3)cc2)nc1C(N)=O` [Example 2, 3,5-Dimethyl-6-[4-(trans-4-{2-[(methylsulfonyl)amino]-2-oxoethyl}cyclohexyl)-phenyl]pyrazine-2-carboxamide], the IC50 is 71 nM.

For `Cc1nc(C)c(-c2ccc([C@H]3CC[C@H](CC(=O)NC(C)(C)C(=O)O)CC3)cc2)nc1C(N)=O` [Example 4, N-({trans-4-[4-(6-Carbamoyl-3,5-dimethylpyrazin-2-yl)phenyl]cyclohexyl}acetyl)-2-methylalanine], the half-inhibitory concentration (IC50) worked out at 42 nM.

`Cc1nc(C)c(-c2ccc([C@H]3CC[C@H](CCO)CC3)cc2)nc1C(N)=O` [Example 5, 6-{4-[trans-4-(2-Hydroxyethyl)cyclohexyl]phenyl}-3,5-dimethylpyrazine-2-carboxamide]: the IC50 was 18 nM.

As for `Cc1nc(C)c(-c2ccc(O[C@H]3CC[C@@H](C(=O)O)CC3)nc2)nc1C(N)=O` [Example 6, cis-4-{[5-(6-Carbamoyl-3,5-dimethylpyrazin-2-yl)pyridin-2-yl]oxy}cyclohexanecarboxylic acid], the IC50 was found to be 5710 nM.

On to `Cc1nc(C)c(-c2ccc(O[C@H]3CC[C@@H](CC(=O)O)CC3)nc2)nc1C(N)=O` [Example 7, (cis-4-{[5-(6-Carbamoyl-3,5-dimethylpyrazin-2-yl)pyridin-2-yl]oxy}cyclohexyl)acetic acid], for which the 50% inhibitory concentration (IC50) stood at 5090 nM.

In the case of `CCc1nc(C)c(C(N)=O)nc1-c1ccc([C@H]2CC[C@H](CC(=O)O)CC2)cc1` [Example 9, {trans-4-[4-(6-Carbamoyl-3-ethyl-5-methylpyrazin-2-yl)phenyl]cyclohexyl}acetic acid], the IC50 amounted to 674 nM.

As to `Cc1ncc(C(N)=O)nc1-c1ccc([C@H]2CC[C@H](CC(=O)O)CC2)cc1` [Example 11, {trans-4-[4-(6-Carbamoyl-3-methylpyrazin-2-yl)phenyl]cyclohexyl}acetic acid], the 50% inhibitory concentration (IC50) came to 102 nM.

In the case of `NC(=O)c1cncc(-c2ccc([C@H]3CC[C@H](CC(=O)O)CC3)cc2)n1` [Example 13, {trans-4-[4-(6-Carbamoylpyrazin-2-yl)phenyl]cyclohexyl}acetic acid], the concentration for half-maximal inhibition (IC50) was 428 nM.

For the compound `NC(=O)C[C@H]1CC[C@H](c2ccc(-c3cncc(C(N)=O)n3)cc2)CC1` [Example 14, 6-{4-[trans-4-(2-Amino-2-oxoethyl)cyclohexyl]phenyl}pyrazine-2-carboxamide], the IC50 turned out to be 159 nM.

Regarding `NC(=O)c1cncc(-c2ccc([C@H]3CC[C@H](CCO)CC3)cc2)n1` [Example 15, 6-{4-[trans-4-(2-Hydroxyethyl)cyclohexyl]phenyl}pyrazine-2-carboxamide], the concentration for half-maximal inhibition (IC50) came to 157 nM.

On to `COC(=O)C(C)(C)NC(=O)C[C@H]1CC[C@H](c2ccc(-c3cncc(C(N)=O)n3)cc2)CC1` [Example 16, Methyl N-({trans-4-[4-(6-carbamoylpyrazin-2-yl)phenyl]cyclohexyl}acetyl)-2-methylalaninate], for which the IC50 came out at 1230 nM.

On to `CC(C)(NC(=O)C[C@H]1CC[C@H](c2ccc(-c3cncc(C(N)=O)n3)cc2)CC1)C(=O)O` [Example 17, N-({trans-4-[4-(6-Carbamoylpyrazin-2-yl)phenyl]cyclohexyl}acetyl)-2-methylalanine], for which the IC50 was 418 nM.

As to `NC(=O)c1nc(-c2ccc([C@H]3CC[C@H](CC(=O)O)CC3)cc2)cnc1N` [Example 18, 3-Carbamoyl-5-{4-[trans-4-(carboxymethyl)cyclohexyl]phenyl}pyrazin-2-aminium chloride], the IC50 came out at 2850 nM.

With `Cc1nc(C)c(-c2ccc(C34CCC(C(=O)O)(CC3)CC4)cc2)nc1C(N)=O` [Example 21, 4-(4-(6-Carbamoyl-3,5-dimethylpyrazin-2-yl)phenyl)bicyclo[2.2.2]octane-1-carboxylic acid], the half-maximal inhibitory concentration (IC50) was found to be 270 nM.

Staying with this test, now noted: assay acetone concentration of 1.8%; read-out: IC50.
Turning to `Cc1nc(C)c(-c2ccc([C@H]3CC[C@H](CC(=O)O)CC3)cc2)nc1C(N)=O` [Example 1, {trans-4-[4-(6-Carbamoyl-3,5-dimethylpyrazin-2-yl)phenyl]cyclohexyl}acetic acid], the half-inhibitory concentration (IC50) worked out at 16 nM.
